Values belong to the molecule of their own block, whether it stands above or below them.
Tests used:
[1] = target: T1, RORγ (Homo sapiens, UniProt P51449); test: FRET based assay monitoring coactivator peptide TRAP220 recruitment to RORγ; type: biochemical
T1 construct: sub-cloning residues 259 to 518 of a human RORγ cDNA; GST (PreScission site) (N); made in house; host or cells: Escherichia coli BL21 (DE3)
T1 sequence (P51449 259-518): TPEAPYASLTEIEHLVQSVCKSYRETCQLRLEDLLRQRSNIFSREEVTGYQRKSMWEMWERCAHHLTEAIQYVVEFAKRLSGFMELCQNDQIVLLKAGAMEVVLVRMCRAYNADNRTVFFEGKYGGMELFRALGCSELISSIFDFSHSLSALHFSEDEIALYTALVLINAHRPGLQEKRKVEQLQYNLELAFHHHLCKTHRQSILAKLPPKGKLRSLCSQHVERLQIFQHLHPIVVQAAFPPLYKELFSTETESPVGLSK
Description: (§1) FRET-based (Fluorescence Resonance Energy Transfer) assay and the GAL4 Reporter assay were performed as described previously. BIO592 and BIO399 were synthesized (Additional file 1) and belonged to a proprietary library where they were identified as RORγ activity modulators using the FRET-based assay.

[2] = tested on: RORγ; set-up: method as in PMID 24239186; details: SRC1 displacement FRET assay; cited from earlier work
[3] = target: T2, GAL4 fused to the LBD of RORβ (Homo sapiens, UniProt Q92753); test: GAL4 cellular luciferase reporter assay, GAL4 fused to LBD of RORβ; type: cell-based
T2 construct: cells expressing GAL4 fused to the LBD of ROR α or β, respectively; expressed in transfected cells
T2 sequence (Q92753 222-460 limits assumed): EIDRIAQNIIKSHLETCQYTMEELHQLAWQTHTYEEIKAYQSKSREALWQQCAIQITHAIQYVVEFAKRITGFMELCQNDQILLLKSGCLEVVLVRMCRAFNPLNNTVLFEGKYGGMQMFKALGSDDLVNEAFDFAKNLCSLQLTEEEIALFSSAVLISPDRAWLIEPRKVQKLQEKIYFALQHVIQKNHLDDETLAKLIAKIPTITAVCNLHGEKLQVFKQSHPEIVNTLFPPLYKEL
Description: as §1
(§2) In order to assess the in vivo selectivity profile of BIO399 a cellular reporter assay was implemented where the ligand binding domains of ROR α, β and γ were fused to the DNA binding domain of the transcriptional factor GAL4. The ROR-GAL4 fusion proteins were expressed in cells with the luciferase reporter gene under the control of a GAL4 promoter. […] The LBS of RORs share a high degree of similarity. However, the inverse agonism trigger of BIO399, residue Met358, is a leucine in both RORα and β. This selectivity profile for BIO399 is attributed to the shorter leucine side chain in RORα and β which would not reach the phenylalanine on the AF2 helix further underscoring the role of Met358 as a trigger for RORγ specific inverse agonism (Fig. 7a). Furthermore, RORα contains two phenylalanine residues in its LBS whereas RORβ and γ have a leucine in the same position (Fig. 6b). We hypothesize that the two phenylalanine residues in the LBS of RORα occlude the dihydrobenzoxazepinone ring system of BIO399 from binding it and responsible for the increase in […].

[4] = target: T3, RORγ-GAL4 fusion (Homo sapiens, UniProt P51449); test: GAL4 cellular luciferase reporter assay, RORγ-GAL4 fusion; type: cell-based
T3 construct: expressed in transfected cells
T3 sequence (P51449 269-508 limits assumed): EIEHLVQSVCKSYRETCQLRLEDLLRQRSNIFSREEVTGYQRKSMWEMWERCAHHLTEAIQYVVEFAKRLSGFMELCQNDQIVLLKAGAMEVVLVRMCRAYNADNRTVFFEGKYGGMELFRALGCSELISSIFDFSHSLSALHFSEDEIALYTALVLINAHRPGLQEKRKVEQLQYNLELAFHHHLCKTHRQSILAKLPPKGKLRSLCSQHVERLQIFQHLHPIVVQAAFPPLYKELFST
Description: as §1, §2

[5] = target: T4, GAL4 fused to the LBD of RORα (Homo sapiens, UniProt P35398); test: GAL4 cellular luciferase reporter assay, GAL4 fused to LBD of RORα; type: cell-based
T4 construct: cells expressing GAL4 fused to the LBD of ROR α or β, respectively; expressed in transfected cells
T4 sequence (P35398 272-510 limits assumed): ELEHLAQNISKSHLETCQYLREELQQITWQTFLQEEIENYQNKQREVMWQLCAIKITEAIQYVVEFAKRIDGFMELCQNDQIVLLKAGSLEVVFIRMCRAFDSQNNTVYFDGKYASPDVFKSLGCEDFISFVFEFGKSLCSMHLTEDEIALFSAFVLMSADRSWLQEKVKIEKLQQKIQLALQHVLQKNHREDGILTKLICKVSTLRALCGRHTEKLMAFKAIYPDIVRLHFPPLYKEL
Description: as §1, §2

[6] = target: T5, RORγ518 (human RORγ ligand binding domain, residues 259-518) (human, UniProt P51449 259-518); test: crystal structure; RORγ518 8 mg/ml with 0.5 mM EBI96 and 1 mM agonist BIO592; vapor diffusion, 0.1 M HEPES pH 8.0, 25 % PEG3350, 0.2 M NaCl, 18 °C; 2.63 Å, P21, four ternary complexes in the asymmetric unit; details: both partners purified
T5 construct: Cloned in pGEX-6P; GST removed with PreScission Protease before SEC, crystallisation and proteolysis; also called GST-RORγ518 (before cleavage); source: E. coli BL21 (DE3), purified (Glutathione Sepharose, PreScission Protease, Superdex 75); not shown: GST, N-terminal, cleaved
T5 sequence (looked up): T1 sequence (P51449 259-518)

Emax ([1]; agonist, coactivator peptide TRAP220 recruitment): 130%
EC50 ([1]; agonist, increase of coactivator peptide TRAP220 recruitment to RORγ): 58 nM
Molecule: CCN1C(=O)COc2cc(N(CC(F)(F)F)S(=O)(=O)c3ccc(C)c(C)c3)ccc21 [BIO592, N-(4-ethyl-3-oxo-3,4-dihydro-2H-benzo[b][1,4]oxazin-7-yl)-3,4-dimethyl-N-(2,2,2-trifluoroethyl)benzenesulfonamide]

IC50 ([3]; GAL4 cell assay, RORβ, N = 2): > 1200 nM
Selectivity ([3]; GAL4 cell assay, RORγ versus RORβ): >28.2 X
fold selectivity over RORβ ([3]; GAL4 reporter, RORγ versus RORβ): > 28 fold
IC50 ([4]; GAL4 cell assay, RORγ, N = 6): 43 nM
IC50 ([4]; luciferase activity, cells expressing RORγ-GAL4 fusion): 42.5 nM
IC50 ([1]; inverse agonist, inhibition of coactivator recruitment in the authors' FRET assay): 4.7 nM
IC50 ([5]; GAL4 cell assay, RORα, N = 2): > 10000 nM
Selectivity ([5]; GAL4 cell assay, RORγ versus RORα): >235 X
fold selectivity over RORα ([5]; GAL4 reporter, RORγ versus RORα): > 235 fold
Molecule: CCN1C(=O)C(C)(C)COc2cc(N(CC(F)(F)F)S(=O)(=O)c3ccc(C)c(C)c3)ccc21 [BIO399, N-(9-Ethyl-7,7-dimethyl-8-oxo-6,7,8,9-tetrahydro-5-oxa-9-aza-benzocyclohepten-3-yl)-3,4-dimethyl-N-(2,2,2-trifluoro-ethyl)-benzenesulfonamide]

binding result [6]: binds
B1: coactivator peptide EBI96 (peptide)
peptide: EFPYLLSLLGEVSPQ
notes: source: synthetic peptide; bought: New England Peptide
